{"source": "patent US20240300948A1", "about": "“Heterocyclic Compounds As Kinase Inhibitors” (Incyte Corporation, priority 2023, published 2024)", "key": {"[1]": {"molecular_target": "T1, catalytic domain (JH1, amino acids 826-1132) of human JAK2 (Homo sapiens, UniProt O60674)", "T1 construct": "catalytic domain (JH1, amino acids 826-1132) of human JAK2; FLAG (N); purchased Carna Biosciences 08-445-20N; host or cells: baculovirus expression system", "T1 sequence (O60674 826-1132)": "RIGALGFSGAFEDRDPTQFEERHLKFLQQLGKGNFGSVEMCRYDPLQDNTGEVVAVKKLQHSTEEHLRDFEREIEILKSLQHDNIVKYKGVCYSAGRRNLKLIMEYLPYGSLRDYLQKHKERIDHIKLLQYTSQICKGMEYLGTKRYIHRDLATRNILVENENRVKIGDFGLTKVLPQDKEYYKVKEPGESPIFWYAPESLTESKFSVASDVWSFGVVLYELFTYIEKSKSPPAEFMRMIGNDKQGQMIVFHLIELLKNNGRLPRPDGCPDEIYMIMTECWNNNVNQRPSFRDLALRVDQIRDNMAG", "experiment": "JAK2 LanthaScreen JH1 binding assay", "conditions": "50 nM tracer, 2 hours at 25° C., read-out: JH1 BIND IC50", "description": "Example A. JAK2 LanthaScreen […] Binding Assay\nJAK2 JH1 binding assay utilizes catalytic domain (JH1, amino acids 826-1132) of human JAK2 expressed as N-terminal FLAG-tagged, biotinylated protein in a baculovirus expression system (Carna Biosciences, Product #08-445-20N). The assay was conducted in black 384-well polystyrene plates in a final reaction volume of 20 μL. JAK2 JH1 (1.5 nM) was incubated with compounds (100 nL serially diluted in DMSO) in the presence of 50 nM fluorescent JAK2-JH1 tracer and 0.5 nM Streptavidin-Tb cryptate (Cisbio Part #610SATLB) in assay buffer (50 mM Tris, pH=7.5, 10 mM MgCl2, 0.01% Brij-35, 0.1% BSA, 1 mM EGTA, 5% Glycerol and 5 mM DTT). Non-specific binding was accessed in the presence of 2 mM ATP. After incubation for 2 hours at 25° C., LanthaScreen signals were read on a PHERAstar FS plate reader (BMG LABTECH). Data was analyzed with IDBS XLfit and GraphPad Prism 5.0 software using a four parameter dose response curve to determine IC50 for each compound."}, "[2]": {"molecular_target": "T2, pseudo-kinase domain (JH2, amino-acids 536-812 with 3 surface mutations W659A, W777A, F794H) of human V617F mutant JAK2 (Homo sapiens, UniProt O60674, F794H/V617F/W659A/W777A)", "T2 construct": "pseudo-kinase domain (JH2, amino-acids 536-812 with 3 surface mutations W659A, W777A, F794H); His (C); Avi (biotinylated) (C); purchased BPS Bioscience 79498; host or cells: baculovirus expression system", "T2 sequence (O60674 536-812 V617F/W659A/W777A/F794H)": "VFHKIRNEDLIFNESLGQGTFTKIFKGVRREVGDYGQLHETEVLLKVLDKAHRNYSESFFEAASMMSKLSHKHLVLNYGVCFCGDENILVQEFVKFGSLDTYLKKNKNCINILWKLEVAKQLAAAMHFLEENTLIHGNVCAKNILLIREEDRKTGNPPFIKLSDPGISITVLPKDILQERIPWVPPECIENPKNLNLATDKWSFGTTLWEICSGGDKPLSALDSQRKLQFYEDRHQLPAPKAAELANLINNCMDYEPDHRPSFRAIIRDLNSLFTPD", "experiment": "JAK2 LanthaScreen JH2-V617F binding assay", "conditions": "50 nM tracer, 1 hour at 25° C., read-out: JH2 BIND V617F IC50", "description": "Example C. JAK2 LanthaScreen JH2-V617F Binding Assay\n(§1) JAK2 JH2-V617F binding assay utilizes pseudo-kinase domain (JH2, amino-acids 536-812 with 3 surface mutations W659A, W777A, F794H) of human V617F mutant JAK2 expressed as C-terminal His-Avi-tagged, biotinylated protein in a baculovirus expression system (BPS Bioscience, Catalog #79498). The assay was conducted in black 384-well polystyrene plates in a final reaction volume of 20 μL. JAK2 JH2-V617F (0.26 nM) was incubated with compounds (100 nL serially diluted in DMSO) in the presence of 50 nM Fluorescent JAK2-JH2 Tracer (MedChem Express Catalog #HY-102055) and 0.25 nM Streptavidin-Tb cryptate (Cisbio Part #610SATLB) in assay buffer (50 mM Tris, pH=7.5, 10 mM MgCl2, 0.01% Brij-35, 0.1% BSA, 1 mM EGTA, 5% Glycerol and 5 mM DTT). Non-specific binding was accessed in the presence of 2 mM ATP. After incubation for 1 hour at 25° C., LanthaScreen signals were read on a PHERAstar FS plate reader (BMG LABTECH). Data was analyzed with IDBS XLfit and GraphPad Prism 5.0 software using a four parameter dose response curve to determine IC50 for each compound."}, "[3]": {"molecular_target": "T3, pseudo-kinase domain (JH2, amino-acids 536-812 with 3 surface mutations W659A, W777A, F794H) of human Wild Type JAK2 (Homo sapiens, UniProt O60674, F794H/W659A/W777A)", "T3 construct": "pseudo-kinase domain (JH2, amino-acids 536-812 with 3 surface mutations W659A, W777A, F794H); His (C); Avi (biotinylated) (C); purchased BPS Bioscience 79463; host or cells: baculovirus expression system", "T3 sequence (O60674 536-812 W659A/W777A/F794H)": "as the sequence (O60674 536-812 V617F/W659A/W777A/F794H) above, with F82V counted along it", "experiment": "JAK2 LanthaScreen JH2-WT binding assay", "conditions": "50 nM tracer, 1 hour at 25° C., read-out: JH2 BIND WT IC50", "description": "Example B. JAK2 LanthaScreen JH2-WT Binding Assay\nas §1, with “JH2-WT” for “JH2-V617F”, “Wild Type” for “V617F mutant”, “#79463).” for “#79498).”, “JH2-WT (0.145” for “JH2-V617F (0.26”"}}}
{"smiles": "CC(C)n1ncc2cc(-c3c(-c4cnn(C)c4)[nH]c4ncc5c(c34)N([C@H]3CC[C@@H]3NC(=O)NCC(F)F)C(=O)NC5)ccc21", "note": "(racemic) [Example 8, N-(2,2-Difluoroethyl)-3-(trans-2-(9-(1-isopropyl-1H-indazol-5-yl)-8-(1-methyl-1H-pyrazol-4-yl)-2-oxo-2,3,4,7-tetrahydro-1H-pyrrolo[3′,2′:5,6]pyrido[4,3-d]pyrimidin-1-yl)cyclobutyl)urea]", "values": [{"measurement": "IC50", "setting": "[1]", "value": "> 1000", "unit": "nM"}, {"measurement": "IC50", "setting": "[2]", "value": "100 to 500", "unit": "nM"}, {"measurement": "IC50", "setting": "[3]", "value": "10 to 100", "unit": "nM"}]}
{"smiles": "CC(=O)N[C@@H]1CC[C@@H](N2C(=O)NCc3cnc4[nH]c(-c5cnn(C)c5)c(-c5ccc6c(cnn6C(C)C)c5)c4c32)C1", "note": "[Example 9, N-((1R,3R)-3-(9-(1-Isopropyl-1H-indazol-5-yl)-8-(1-methyl-1H-pyrazol-4-yl)-2-oxo-2,3,4,7-tetrahydro-1H-pyrrolo[3′,2′:5,6]pyrido[4,3-d]pyrimidin-1-yl)cyclopentyl) acetamide]", "values": [{"measurement": "IC50", "setting": "[1]", "value": "> 1000", "unit": "nM"}, {"measurement": "IC50", "setting": "[2]", "value": "10 to 100", "unit": "nM"}, {"measurement": "IC50", "setting": "[3]", "value": "10 to 100", "unit": "nM"}]}
{"smiles": "COC(=O)N[C@@H]1CC[C@@H](n2c(=O)[nH]c(=O)c3cnc4[nH]c(-c5cnn(C)c5)c(-c5ccc6c(cnn6C(C)C)c5)c4c32)C1", "note": "[Example 39, Methyl ((1R,3R)-3-(9-(1-isopropyl-1H-indazol-5-yl)-8-(1-methyl-1H-pyrazol-4-yl)-2,4-dioxo-2,3,4,7-tetrahydro-1H-pyrrolo[3′,2′:5,6]pyrido[4,3-d]pyrimidin-1-yl)cyclopentyl)carbamate]", "values": [{"measurement": "IC50", "setting": "[1]", "value": "> 1000", "unit": "nM"}, {"measurement": "IC50", "setting": "[2]", "value": "10 to 100", "unit": "nM"}, {"measurement": "IC50", "setting": "[3]", "value": "10 to 100", "unit": "nM"}]}
{"smiles": "CC(C)n1ncc2cc(-c3c(-c4cnn(C)c4)[nH]c4ncc5c(c34)N(C3CCN(C(=O)NCC(F)F)CC3)C(=O)NC5)ccc21", "note": "[Example 17, N-(2,2-Difluoroethyl)-4-(9-(1-isopropyl-1H-indazol-5-yl)-8-(1-methyl-1H-pyrazol-4-yl)-2-oxo-2,3,4,7-tetrahydro-1H-pyrrolo[3′,2′:5,6]pyrido[4,3-d]pyrimidin-1-yl)piperidine-1-carboxamide]", "values": [{"measurement": "IC50", "setting": "[1]", "value": "> 1000", "unit": "nM"}, {"measurement": "IC50", "setting": "[2]", "value": "10 to 100", "unit": "nM"}, {"measurement": "IC50", "setting": "[3]", "value": "10 to 100", "unit": "nM"}]}
{"smiles": "COC(=O)N[C@@H]1CC[C@@H](n2c(=O)nc(N(C)C)c3cnc4[nH]c(-c5cnn(C)c5)c(-c5ccc6c(cnn6C(C)C)c5)c4c32)C1", "note": "[Example 43, Methyl ((1R,3R)-3-(4-(dimethylamino)-9-(1-isopropyl-1H-indazol-5-yl)-8-(1-methyl-1H-pyrazol-4-yl)-2-oxo-2,7-dihydro-1H-pyrrolo[3′,2′:5,6]pyrido[4,3-d]pyrimidin-1-yl)cyclopentyl)carbamate]", "values": [{"measurement": "IC50", "setting": "[1]", "value": "> 1000", "unit": "nM"}, {"measurement": "IC50", "setting": "[2]", "value": "100 to 500", "unit": "nM"}, {"measurement": "IC50", "setting": "[3]", "value": "100 to 500", "unit": "nM"}]}
{"smiles": "COC(=O)N[C@@H]1CC[C@@H](N2C(=O)NCc3cnc4[nH]c(-c5cnn(C)c5)c(-c5ccc(OC6CCOC6)cc5)c4c32)C1", "note": "(mixture of isomers) [Example 27, Methyl ((1R,3R)-3-(8-(1-methyl-1H-pyrazol-4-yl)-2-oxo-9-(4-((tetrahydrofuran-3-yl)oxy)phenyl)-2,3,4,7-tetrahydro-1H-pyrrolo[3′,2′:5,6]pyrido[4,3-d]pyrimidin-1-yl)cyclopentyl)ca rbamate]", "values": [{"measurement": "IC50", "setting": "[1]", "value": "100 to 500", "unit": "nM"}, {"measurement": "IC50", "setting": "[2]", "value": "10 to 100", "unit": "nM"}, {"measurement": "IC50", "setting": "[3]", "value": "10 to 100", "unit": "nM"}]}
{"smiles": "COC(=O)N[C@H]1C[C@@H](N2C(=O)NCc3cnc4[nH]c(-c5cnn(C)c5)c(-c5ccc6c(cnn6C(C)C)c5)c4c32)C1", "note": "[Example 4, Methyl ((1s,3s)-3-(9-(1-isopropyl-1H-indazol-5-yl)-8-(1-methyl-1H-pyrazol-4-yl)-2-oxo-2,3,4,7-tetrahydro-1H-pyrrolo[3′,2′:5,6]pyrido[4,3-d]pyrimidin-1-yl)cyclobutyl) carbamate]", "values": [{"measurement": "IC50", "setting": "[1]", "value": "> 1000", "unit": "nM"}, {"measurement": "IC50", "setting": "[2]", "value": "10 to 100", "unit": "nM"}, {"measurement": "IC50", "setting": "[3]", "value": "10 to 100", "unit": "nM"}]}
{"smiles": "COC(=O)N[C@@H]1CC[C@@H](n2c(=O)ncc3cnc4[nH]c(-c5cnn(C)c5)c(-c5ccc6c(cnn6C)c5)c4c32)C1", "note": "[Example 37, Methyl ((1R,3R)-3-(9-(1-methyl-1H-indazol-5-yl)-8-(1-methyl-1H-pyrazol-4-yl)-2-oxo-2,7-dihydro-1H-pyrrolo[3′,2′:5,6]pyrido[4,3-d]pyrimidin-1-yl)cyclopentyl)carbamate]", "values": [{"measurement": "IC50", "setting": "[1]", "value": "> 1000", "unit": "nM"}, {"measurement": "IC50", "setting": "[2]", "value": "100 to 500", "unit": "nM"}, {"measurement": "IC50", "setting": "[3]", "value": "100 to 500", "unit": "nM"}]}
{"smiles": "CC(C)n1ncc2cc(-c3c(-c4cnn(C)c4)[nH]c4ncc5c(c34)N([C@H]3C[C@@H](NC(=O)c4nc(C(F)(F)F)cs4)C3)C(=O)NC5)ccc21", "note": "[Example 22, N-((1s,3s)-3-(9-(1-isopropyl-1H-indazol-5-yl)-8-(1-methyl-1H-pyrazol-4-yl)-2-oxo-2,3,4,7-tetrahydro-1H-pyrrolo[3′,2′:5,6]pyrido[4,3-d]pyrimidin-1-yl)cyclobutyl)-4-(trifluoromethyl)thiazole-2-carboxamide]", "values": [{"measurement": "IC50", "setting": "[1]", "value": "> 1000", "unit": "nM"}, {"measurement": "IC50", "setting": "[2]", "value": "100 to 500", "unit": "nM"}, {"measurement": "IC50", "setting": "[3]", "value": "100 to 500", "unit": "nM"}]}
{"smiles": "CC(C)n1ncc2cc(-c3c(-c4cnn(C)c4)[nH]c4ncc5c(c34)N([C@H]3CC[C@@H]3NS(C)(=O)=O)C(=O)NC5)ccc21", "note": "(racemic) [Example 7, N-(trans-2-(9-(1-Isopropyl-1H-indazol-5-yl)-8-(1-methyl-1H-pyrazol-4-yl)-2-oxo-2,3,4,7-tetrahydro-1H-pyrrolo[3′,2′:5,6]pyrido[4,3-d]pyrimidin-1-yl)cyclobutyl) methan esulfonamide]", "values": [{"measurement": "IC50", "setting": "[1]", "value": "> 1000", "unit": "nM"}, {"measurement": "IC50", "setting": "[2]", "value": "10 to 100", "unit": "nM"}, {"measurement": "IC50", "setting": "[3]", "value": "10 to 100", "unit": "nM"}]}
{"smiles": "CC(=O)N[C@H]1C[C@H](N2C(=O)NCc3cnc4[nH]c(-c5cnn(C)c5)c(-c5ccc6c(cnn6C(C)C)c5)c4c32)C1", "note": "[Example 2, N-((1r,3r)-3-(9-(1-Isopropyl-1H-indazol-5-yl)-8-(1-methyl-1H-pyrazol-4-yl)-2-oxo-2,3,4,7-tetrahydro-1H-pyrrolo[3′,2′:5,6]pyrido[4,3-d]pyrimidin-1-yl)cyclobutyl) acetamide]", "values": [{"measurement": "IC50", "setting": "[1]", "value": "> 1000", "unit": "nM"}, {"measurement": "IC50", "setting": "[2]", "value": "10 to 100", "unit": "nM"}, {"measurement": "IC50", "setting": "[3]", "value": "10 to 100", "unit": "nM"}]}
{"smiles": "COC(=O)N[C@H]1C[C@H](N2C(=O)NC(C)c3cnc4[nH]c(-c5cnn(C)c5)c(-c5ccc6c(cnn6C(C)C)c5)c4c32)C1", "note": "(mixture of isomers) [Example 38, Methyl ((1r,3r)-3-(9-(1-isopropyl-1H-indazol-5-yl)-4-methyl-8-(1-methyl-1H-pyrazol-4-yl)-2-oxo-2,3,4,7-tetrahydro-1H-pyrrolo[3′,2′:5,6]pyrido[4,3-d]pyrimidin-1-yl)cyclobutyl)carbamate]", "values": [{"measurement": "IC50", "setting": "[1]", "value": "> 1000", "unit": "nM"}, {"measurement": "IC50", "setting": "[2]", "value": "10 to 100", "unit": "nM"}, {"measurement": "IC50", "setting": "[3]", "value": "10 to 100", "unit": "nM"}]}
{"smiles": "COC(=O)N[C@@H]1CC[C@@H](N2C(=O)NCc3cnc4[nH]c(-c5cnn(C)c5)c(-c5ccc(OC)cc5)c4c32)C1", "note": "[Example 28, Methyl ((1R,3R)-3-(9-(4-methoxyphenyl)-8-(1-methyl-1H-pyrazol-4-yl)-2-oxo-2,3,4,7-tetrahydro-1H-pyrrolo[3′,2′:5,6]pyrido[4,3-d]pyrimidin-1-yl)cyclopentyl)carbamate]", "values": [{"measurement": "IC50", "setting": "[1]", "value": "> 1000", "unit": "nM"}, {"measurement": "IC50", "setting": "[2]", "value": "10 to 100", "unit": "nM"}, {"measurement": "IC50", "setting": "[3]", "value": "10 to 100", "unit": "nM"}]}
